# Assays:
# [1] = system: MDA-MB-231 human breast cancer cells; experiment: Proliferation assay MDA-MB-231 (crystal violet); type: cell-based; settings: Homo sapiens, MDA-MB-231, 96 h, MDA-MB-231 cells, 4 days, median, read-out: Prolif-MDA MB231 IC50 - [mol/l] (median)
# Summary of the method: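 Cells seeded at 4,000/well in medium with 10% fetal calf serum, dosed after 24 h (0.01-10 micromol/L, 0.1% DMSO) and grown 4 days. Crystal violet staining read at 595 nm, normalised to zero-point plate (0%) and untreated cells (100%); IC50 by 4-parameter fit.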
# [2] = target: T1, CYCLIN K (Homo sapiens, UniProt O75909); experiment: CYCLIN K nuclear protein level: immunofluorescence/high content analysis in CAL-120 cells; type: cell-based; settings: 24 h, nuclear CCNK staining intensity, median, read-out: CYCLIN K degradation IF, DC50- [mol/l] (median)
# T1 construct: endogenous in cells; host or cells: CAL-120 human breast cancer cells (DSMZ ACC 459)
# Summary of the method: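 CAL-120 cells were incubated with compound in dose-response for 24 h at 37° C, then fixed, immunostained for CYCLIN K and Hoechst-counterstained. Confocal imaging gave nuclear intensity. DC50 is the concentration giving 50% reduction of nuclear CCNK staining relative to DMSO and reference controls.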
# T1 sequence (O75909 whole entry): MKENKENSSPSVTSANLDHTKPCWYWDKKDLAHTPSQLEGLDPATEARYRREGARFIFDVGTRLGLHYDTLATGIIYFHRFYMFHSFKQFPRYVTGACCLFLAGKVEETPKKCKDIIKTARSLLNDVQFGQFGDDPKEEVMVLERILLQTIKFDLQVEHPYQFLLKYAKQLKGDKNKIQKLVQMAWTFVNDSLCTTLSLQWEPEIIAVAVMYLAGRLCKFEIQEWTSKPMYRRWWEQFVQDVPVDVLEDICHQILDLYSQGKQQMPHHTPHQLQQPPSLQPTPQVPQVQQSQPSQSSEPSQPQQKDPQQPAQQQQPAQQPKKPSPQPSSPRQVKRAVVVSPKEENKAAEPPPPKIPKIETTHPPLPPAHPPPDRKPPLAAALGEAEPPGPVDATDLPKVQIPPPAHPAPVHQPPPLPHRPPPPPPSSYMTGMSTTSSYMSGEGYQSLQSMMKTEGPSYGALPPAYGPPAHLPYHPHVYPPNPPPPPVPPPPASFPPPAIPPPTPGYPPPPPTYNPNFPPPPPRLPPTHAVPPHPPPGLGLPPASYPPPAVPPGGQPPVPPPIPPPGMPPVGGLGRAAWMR
# T1 sequence (Q9NYV4 whole entry partner): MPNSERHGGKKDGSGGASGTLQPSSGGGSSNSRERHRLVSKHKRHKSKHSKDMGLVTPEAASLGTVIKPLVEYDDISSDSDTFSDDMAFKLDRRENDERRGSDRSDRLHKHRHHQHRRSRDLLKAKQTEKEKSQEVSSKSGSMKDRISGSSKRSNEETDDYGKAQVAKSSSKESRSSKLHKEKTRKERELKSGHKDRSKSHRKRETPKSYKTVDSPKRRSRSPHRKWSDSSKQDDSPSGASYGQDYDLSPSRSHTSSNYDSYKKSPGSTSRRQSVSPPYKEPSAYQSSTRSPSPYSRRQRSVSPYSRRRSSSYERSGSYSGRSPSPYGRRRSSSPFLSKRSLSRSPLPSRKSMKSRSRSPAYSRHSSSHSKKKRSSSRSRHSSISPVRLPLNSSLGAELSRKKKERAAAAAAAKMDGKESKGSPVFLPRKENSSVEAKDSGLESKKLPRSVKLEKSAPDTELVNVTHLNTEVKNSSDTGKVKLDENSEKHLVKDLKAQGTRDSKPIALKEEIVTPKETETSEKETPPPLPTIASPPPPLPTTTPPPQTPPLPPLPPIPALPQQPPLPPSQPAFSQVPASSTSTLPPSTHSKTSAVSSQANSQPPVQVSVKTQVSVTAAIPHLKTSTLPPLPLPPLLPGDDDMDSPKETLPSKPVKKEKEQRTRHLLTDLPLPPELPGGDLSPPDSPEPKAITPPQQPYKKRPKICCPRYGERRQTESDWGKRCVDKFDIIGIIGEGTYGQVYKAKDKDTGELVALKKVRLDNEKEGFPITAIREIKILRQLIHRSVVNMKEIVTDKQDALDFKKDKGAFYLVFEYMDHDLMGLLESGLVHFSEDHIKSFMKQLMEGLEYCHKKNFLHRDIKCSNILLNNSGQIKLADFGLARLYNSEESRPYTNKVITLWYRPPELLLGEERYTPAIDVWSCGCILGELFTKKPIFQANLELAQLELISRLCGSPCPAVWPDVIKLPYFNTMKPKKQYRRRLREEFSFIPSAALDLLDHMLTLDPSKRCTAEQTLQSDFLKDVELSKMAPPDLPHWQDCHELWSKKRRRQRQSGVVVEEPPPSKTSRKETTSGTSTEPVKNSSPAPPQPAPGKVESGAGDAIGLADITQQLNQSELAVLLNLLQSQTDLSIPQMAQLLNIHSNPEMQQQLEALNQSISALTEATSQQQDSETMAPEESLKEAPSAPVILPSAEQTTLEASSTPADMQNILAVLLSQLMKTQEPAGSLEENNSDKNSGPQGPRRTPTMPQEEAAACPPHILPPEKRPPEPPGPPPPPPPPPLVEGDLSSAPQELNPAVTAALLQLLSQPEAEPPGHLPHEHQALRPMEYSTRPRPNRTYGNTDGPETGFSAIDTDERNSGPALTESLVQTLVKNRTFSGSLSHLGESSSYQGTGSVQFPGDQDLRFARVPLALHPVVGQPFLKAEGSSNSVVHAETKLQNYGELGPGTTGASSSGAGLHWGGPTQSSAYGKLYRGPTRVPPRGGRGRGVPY
compound,measurement,setting,value
"OC1(Cn2nc(NCc3nc4ccccc4[nH]3)c3ncc(C4CC4)nc32)CCCC1 [Example 73, 1-[(3-{[(1H-benzimidazol-2-yl)methyl]amino}-6-cyclopropyl-1H-pyrazolo[3,4-b]pyrazin-1-yl)methyl]cyclopentan-1-ol]",IC50,[1],141 nM
same,DC50,[2],53.2 nM
"COC(C)(C)CCn1nc(NCc2nc3ccccc3[nH]2)c2ncc(C3CC3)nc21 [Example 67, N-[(1H-benzimidazol-2-yl)methyl]-6-cyclopropyl-1-(3-methoxy-3-methylbutyl)-1H-pyrazolo[3,4-b]pyrazin-3-amine]",IC50,[1],268 nM
same,DC50,[2],15.6 nM
"O=CO.c1ccc(-n2nc(NCc3nc4ccccc4[nH]3)c3ncc(C4CC4)nc32)cc1 [Example 13, formic acid—N-[(1H-benzimidazol-2-yl)methyl]-6-cyclopropyl-1-phenyl-1H-pyrazolo[3,4-b]pyrazin-3-amine (1/1)]",IC50,[1],168 nM
same,DC50,[2],3.11 nM
"O[C@H]1C[C@H](n2nc(NCc3nc4ccccc4[nH]3)c3ncc(C4CC4)nc32)C1 [Example 43, trans-3-(3-{[(1H-benzimidazol-2-yl)methyl]amino}-6-cyclopropyl-1H-pyrazolo[3,4-b]pyrazin-1-yl)cyclobutan-1-ol]",IC50,[1],62.2 nM
same,DC50,[2],4.79 nM
"c1ccc2[nH]c(CNc3nn(C4CCC4)c4nc(C5CC5)cnc34)nc2c1 [Example 49, N-[(1H-benzimidazol-2-yl)methyl]-1-cyclobutyl-6-cyclopropyl-1H-pyrazolo[3,4-b]pyrazin-3-amine]",IC50,[1],200 nM
same,DC50,[2],25.7 nM
"OC[C@H]1C[C@H](n2nc(NCc3nc4ccccc4[nH]3)c3ncc(C4CC4)nc32)C1 [Example 46, [trans-3-(3-{[(1H-benzimidazol-2-yl)methyl]amino}-6-cyclopropyl-1H-pyrazolo[3,4-b]pyrazin-1-yl)cyclobutyl]methanol]",IC50,[1],47.2 nM
same,DC50,[2],4.87 nM
"CC(C)(O)C1CC(n2nc(NCc3nc4ccccc4[nH]3)c3ncc(C4CC4)nc32)C1 (mixture of isomers) [Example 48, 2-[cis/trans-3-(3-{[(1H-benzimidazol-2-yl)methyl]amino}-6-cyclopropyl-1H-pyrazolo[3,4-b]pyrazin-1-yl)cyclobutyl]propan-2-ol]",IC50,[1],66.1 nM
same,DC50,[2],11.3 nM
"OCC1(Cn2nc(NCc3nc4ccccc4[nH]3)c3ncc(C4CC4)nc32)CCC1 [Example 74, {1-[(3-{[(1H-benzimidazol-2-yl)methyl]amino}-6-cyclopropyl-1H-pyrazolo[3,4-b]pyrazin-1-yl)methyl]cyclobutyl}methanol]",IC50,[1],251 nM
same,DC50,[2],13.6 nM
"O[C@H]1C[C@@H](n2nc(NCc3nc4ccccc4[nH]3)c3ncc(C4CC4)nc32)C1 [Example 40, cis-3-(3-{[(1H-benzimidazol-2-yl)methyl]amino}-6-cyclopropyl-1H-pyrazolo[3,4-b]pyrazin-1-yl)cyclobutan-1-ol]",IC50,[1],83.9 nM
same,DC50,[2],5.35 nM
"c1ccc2[nH]c(CNc3nn(C4CCNCC4)c4nc(C5CC5)cnc34)nc2c1 [Example 12, N-[(1H-benzimidazol-2-yl)methyl]-6-cyclopropyl-1-(piperidin-4-yl)-1H-pyrazolo[3,4-b]pyrazin-3-amine]",IC50,[1],38.3 nM
same,DC50,[2],2.16 nM
"Cc1cnc2c(NCc3nc4ccccc4[nH]3)nn(C3CCN(C)CC3)c2n1 [Example 77, N-[(1H-benzimidazol-2-yl)methyl]-6-methyl-1-(1-methylpiperidin-4-yl)-1H-pyrazolo[3,4-b]pyrazin-3-amine]",IC50,[1],3000 nM
same,DC50,[2],118 nM
"Fc1ccc2[nH]c(CNc3nn(C4CCOCC4)c4nc(C5CC5)cnc34)nc2c1 [Example 53, 6-cyclopropyl-N-[(5-fluoro-1H-benzimidazol-2-yl)methyl]-1-(oxan-4-yl)-1H-pyrazolo[3,4-b]pyrazin-3-amine]",IC50,[1],23.3 nM
same,DC50,[2],6.41 nM
"CN(C)CCn1nc(NCc2nc3ccccc3[nH]2)c2ncc(C3CC3)nc21 [Example 68, N-[(1H-benzimidazol-2-yl)methyl]-6-cyclopropyl-1-[2-(dimethylamino)ethyl]-1H-pyrazolo[3,4-b]pyrazin-3-amine]",IC50,[1],645 nM
same,DC50,[2],20.7 nM
"CN1CCC(n2nc(NCc3nc4ccccc4[nH]3)c3ncc(C4CC4)nc32)CC1 [Example 1, N-[(1H-benzimidazol-2-yl)methyl]-6-cyclopropyl-1-(1-methylpiperidin-4-yl)-1H-pyrazolo[3,4-b]pyrazin-3-amine]",IC50,[1],24.9 nM
same,DC50,[2],7.1 nM
"OC1(Cn2nc(NCc3nc4ccccc4[nH]3)c3ncc(C4CC4)nc32)CCC1 [Example 72, 1-[(3-{[(1H-benzimidazol-2-yl)methyl]amino}-6-cyclopropyl-1H-pyrazolo[3,4-b]pyrazin-1-yl)methyl]cyclobutan-1-ol]",IC50,[1],109 nM
same,DC50,[2],23.4 nM
"OCCn1nc(NCc2nc3ccccc3[nH]2)c2ncc(C3CC3)nc21 [Example 66, 2-(3-{[(1H-benzimidazol-2-yl)methyl]amino}-6-cyclopropyl-1H-pyrazolo[3,4-b]pyrazin-1-yl)ethan-1-ol]",IC50,[1],386 nM
same,DC50,[2],20.3 nM
